The results in this text go back to ChEMBL document CHEMBL4049405, “Investigation on cellular uptake and pharmacodynamics of DOCK2-inhibitory peptides conjugated with cell-penetrating peptides” (Bioorg Med Chem, 2017).

For assay [1], the target named is T1, Dedicator of cytokinesis protein 2 (Homo sapiens, UniProt Q92608). As to the kind of experiment: Inhibition of Rac1 binding to DOCK2 (unknown origin) by ELISA.
Assay [2] addresses T1, Dedicator of cytokinesis protein 2. As to the kind of experiment: Inhibition of DOCK2 (unknown origin) GEF activity.

Positions of bridges follow the written chain, without caps; N, C: chain ends. Residues, ends and D or L forms follow the SMILES beside them.

T1 sequence (Q92608 whole entry): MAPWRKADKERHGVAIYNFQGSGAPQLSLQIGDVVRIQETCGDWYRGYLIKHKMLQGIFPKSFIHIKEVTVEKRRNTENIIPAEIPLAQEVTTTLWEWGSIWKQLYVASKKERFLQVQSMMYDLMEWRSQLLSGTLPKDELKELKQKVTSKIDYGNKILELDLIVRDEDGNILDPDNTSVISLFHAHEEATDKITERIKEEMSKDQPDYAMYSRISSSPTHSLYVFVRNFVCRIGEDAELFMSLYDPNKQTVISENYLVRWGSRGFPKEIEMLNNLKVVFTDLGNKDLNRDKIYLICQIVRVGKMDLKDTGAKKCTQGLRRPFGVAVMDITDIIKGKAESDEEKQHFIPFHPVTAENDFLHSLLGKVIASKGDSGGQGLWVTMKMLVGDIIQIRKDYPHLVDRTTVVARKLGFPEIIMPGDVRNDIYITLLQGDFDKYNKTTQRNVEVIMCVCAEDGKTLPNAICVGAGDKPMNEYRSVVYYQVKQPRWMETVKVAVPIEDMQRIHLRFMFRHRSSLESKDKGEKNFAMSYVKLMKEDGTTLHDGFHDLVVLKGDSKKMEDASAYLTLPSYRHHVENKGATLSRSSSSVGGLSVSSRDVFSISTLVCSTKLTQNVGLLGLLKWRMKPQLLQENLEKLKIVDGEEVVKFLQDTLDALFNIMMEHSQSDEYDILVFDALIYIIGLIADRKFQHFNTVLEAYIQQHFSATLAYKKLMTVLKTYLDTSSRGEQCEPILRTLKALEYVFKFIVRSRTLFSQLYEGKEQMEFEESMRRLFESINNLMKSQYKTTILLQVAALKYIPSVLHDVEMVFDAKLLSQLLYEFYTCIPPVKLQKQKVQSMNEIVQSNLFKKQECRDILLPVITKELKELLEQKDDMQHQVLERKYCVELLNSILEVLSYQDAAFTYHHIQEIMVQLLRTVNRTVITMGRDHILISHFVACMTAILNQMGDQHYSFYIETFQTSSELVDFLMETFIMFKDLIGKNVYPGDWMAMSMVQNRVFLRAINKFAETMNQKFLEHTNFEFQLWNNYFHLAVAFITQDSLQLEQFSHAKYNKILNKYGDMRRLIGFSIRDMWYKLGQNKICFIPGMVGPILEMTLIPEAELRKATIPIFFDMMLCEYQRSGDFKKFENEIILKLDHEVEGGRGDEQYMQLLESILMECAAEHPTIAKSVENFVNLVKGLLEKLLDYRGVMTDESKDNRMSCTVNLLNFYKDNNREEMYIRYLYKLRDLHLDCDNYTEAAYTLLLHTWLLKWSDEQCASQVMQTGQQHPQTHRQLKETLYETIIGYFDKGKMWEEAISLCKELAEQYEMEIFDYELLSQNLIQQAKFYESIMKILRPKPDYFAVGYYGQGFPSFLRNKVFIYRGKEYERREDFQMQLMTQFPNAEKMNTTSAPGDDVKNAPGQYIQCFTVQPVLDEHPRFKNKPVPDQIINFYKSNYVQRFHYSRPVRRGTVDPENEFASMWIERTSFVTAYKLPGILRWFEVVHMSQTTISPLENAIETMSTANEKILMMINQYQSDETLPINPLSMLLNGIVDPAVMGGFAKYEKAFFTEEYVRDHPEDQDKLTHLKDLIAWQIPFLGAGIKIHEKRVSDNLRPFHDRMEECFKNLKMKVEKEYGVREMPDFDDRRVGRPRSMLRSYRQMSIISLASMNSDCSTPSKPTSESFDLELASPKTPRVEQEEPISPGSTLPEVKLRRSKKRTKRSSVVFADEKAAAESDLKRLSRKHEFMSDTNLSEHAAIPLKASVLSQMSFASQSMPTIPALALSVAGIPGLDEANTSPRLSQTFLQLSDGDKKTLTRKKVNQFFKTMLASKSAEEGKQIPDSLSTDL

With `CC(C)C[C@H](N)C(=O)N[C@@H](CC(N)=O)C(=O)N[C@@H](CCCNC(=N)N)C(=O)N[C@H]1CSSC[C@@H](C(=O)N[C@@H](CCCNC(=N)N)C(=O)N[C@@H](CCCNC(=N)N)C(=O)N[C@@H](CCCNC(=N)N)C(=O)O)NC(=O)[C@H](Cc2c[nH]c3ccccc23)NC(=O)[C@@H]2CCCN2C(=O)[C@H](Cc2ccc(O)cc2)NC(=O)CNC(=O)[C@H](Cc2cnc[nH]2)NC(=O)[C@H](Cc2ccc(O)cc2)NC(=O)[C@H](CCCCN)NC(=O)[C@H](C)NC(=O)[C@H](C(C)C)NC1=O` (H-LNRCVAKYHGYPWCRRR-OH; disulfide 4-14), the IC50 in assay [1] worked out at 6 nM; in assay [2], 35 nM.
